According to PubChem BioAssay AID1053150 (Broad Institute, 2014):

System: HepG2 13C-glycerol triglyceride synthesis, LC-MS, 24 h
Assay: TAG formation decrease in hepatoma cells – cell-based, HepG2, LC-MS, 13C-glycerol labeling, cherry-pick, mechanism study for Trib1 inducer project, late-stage follow-up (AID 1053150)
Settings: hits give high values; dose or concentration not given here

Q: `CN1C(=O)c2cc(NC(=O)c3ccc(C(F)(F)F)cc3)ccc2OC[C@@H]2O[C@H](CC(=O)NC3Cc4ccccc4C3)CC[C@@H]21` was tested. Which TAG formation rate inhibition did it give?
A: Its TAG formation rate inhibition is 2%.
